The target of the data set is FUS. The experiment in a line: mouse, dose not given. Conditions: ASO.

HELM strings list units from the 5' end as sugar, base in round brackets, then linkage (d deoxyribose, r ribose, m 2'-O-methyl, p phosphodiester). Strings are as the collection lists them; they lack the last nucleoside at the 3' end of the tested compound. [moe] = 2'-O-(2-methoxyethyl) (MOE); [sp] = phosphorothioate linkage; [m5C] = 5-methylcytosine

“RNA1{[moe](A)[sp].[moe](T)p.[moe]([m5C])p.[moe](A)p.[moe](T)p.d([m5C])[sp].d(G)[sp].d(G)[sp].d(T)[sp].d(T)[sp].d(T)[sp].d([m5C])[sp].d([m5C])[sp].d([m5C])[sp].d(T)[sp].[moe](T)p.[moe](G)p.[moe]([m5C])[sp].[moe](A)}$$$$ (last 3' nucleoside missing)” registered a 3 h FOB score of 5.5 score 0-7.

Values taken from the OligoGym collection.
